Experimental data reported in patent US20080249042A1, “All-Trans-Retinol: All-Trans-13,14-Dihydroretinol Saturase and Methods of Its Use” (UNIVERSITY OF WASHINGTON, priority 2004, published 2008).

How the values were obtained:
CYP26C1 = target: T1, CYP26C1 (Mus musculus, UniProt B2RXA7); details: 0.1 mM, 4 h, cells in culture
T1 sequence (B2RXA7 1-518): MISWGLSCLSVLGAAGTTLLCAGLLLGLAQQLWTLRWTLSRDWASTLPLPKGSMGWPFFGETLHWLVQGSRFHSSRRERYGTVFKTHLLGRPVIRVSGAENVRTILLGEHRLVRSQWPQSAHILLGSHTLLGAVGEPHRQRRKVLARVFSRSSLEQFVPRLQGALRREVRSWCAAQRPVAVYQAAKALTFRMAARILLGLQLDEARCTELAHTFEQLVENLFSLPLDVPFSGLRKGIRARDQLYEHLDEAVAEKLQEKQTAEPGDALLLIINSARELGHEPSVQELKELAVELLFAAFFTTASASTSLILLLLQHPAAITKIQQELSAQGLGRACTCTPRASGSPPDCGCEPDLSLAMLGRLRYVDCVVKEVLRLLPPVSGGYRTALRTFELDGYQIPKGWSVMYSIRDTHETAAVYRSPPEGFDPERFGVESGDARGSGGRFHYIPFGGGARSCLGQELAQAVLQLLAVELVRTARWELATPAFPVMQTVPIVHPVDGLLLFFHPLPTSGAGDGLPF
Protocol: (§1) CYP26A1 Oxidation Assay. […] After 24 h, the transfected cells were split into 12-well plates to ensure an equal number of transfected cells in each assay well. […] The peaks were identified based on their spectra and coelution with standards. The cell lysate was examined for expression of CYP26A1, -B1, and -C1 by SDS-PAGE and immunoblotting of the V5 epitope-tagged recombinant protein using an anti-V5 epitope monoclonal antibody (Invitrogen).

CYP26B1 = target: T2, CYP26B1 (Mus musculus, UniProt Q811W2); details: 0.1 mM, 4 h, cells in culture
T2 sequence (Q811W2 1-512): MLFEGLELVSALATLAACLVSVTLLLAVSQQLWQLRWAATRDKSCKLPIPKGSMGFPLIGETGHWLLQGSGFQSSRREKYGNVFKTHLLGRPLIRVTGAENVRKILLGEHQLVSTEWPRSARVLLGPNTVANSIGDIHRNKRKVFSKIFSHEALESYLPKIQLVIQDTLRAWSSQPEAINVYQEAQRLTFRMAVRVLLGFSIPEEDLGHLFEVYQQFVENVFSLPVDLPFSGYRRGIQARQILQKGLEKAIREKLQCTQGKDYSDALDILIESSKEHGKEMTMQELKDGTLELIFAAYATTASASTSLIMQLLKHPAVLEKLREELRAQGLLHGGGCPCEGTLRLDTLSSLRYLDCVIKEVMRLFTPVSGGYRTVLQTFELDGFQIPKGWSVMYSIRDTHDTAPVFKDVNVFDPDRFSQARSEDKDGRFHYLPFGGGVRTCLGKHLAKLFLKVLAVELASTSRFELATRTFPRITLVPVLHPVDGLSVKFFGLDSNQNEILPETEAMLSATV
Protocol: as §1

RDH12 = target: T3, RDH12 (Homo sapiens, UniProt Q96NR8); test: Oxidation by RDH12; type: biochemical; details: results not shown
T3 sequence (Q96NR8 1-316): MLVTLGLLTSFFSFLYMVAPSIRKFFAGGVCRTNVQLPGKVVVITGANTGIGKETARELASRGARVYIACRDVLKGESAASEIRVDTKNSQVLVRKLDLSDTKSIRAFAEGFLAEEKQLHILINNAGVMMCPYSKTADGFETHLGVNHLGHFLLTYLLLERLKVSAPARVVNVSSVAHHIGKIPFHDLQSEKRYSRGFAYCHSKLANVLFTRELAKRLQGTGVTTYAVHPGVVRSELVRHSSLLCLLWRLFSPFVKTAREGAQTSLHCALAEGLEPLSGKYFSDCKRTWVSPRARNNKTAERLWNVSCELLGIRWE

prRDH = target: T4, prRDH (Homo sapiens, UniProt Q9NYR8); test: Oxidation by photoreceptor-specific RDH; type: biochemical; details: results not shown
T4 sequence (Q9NYR8 1-311): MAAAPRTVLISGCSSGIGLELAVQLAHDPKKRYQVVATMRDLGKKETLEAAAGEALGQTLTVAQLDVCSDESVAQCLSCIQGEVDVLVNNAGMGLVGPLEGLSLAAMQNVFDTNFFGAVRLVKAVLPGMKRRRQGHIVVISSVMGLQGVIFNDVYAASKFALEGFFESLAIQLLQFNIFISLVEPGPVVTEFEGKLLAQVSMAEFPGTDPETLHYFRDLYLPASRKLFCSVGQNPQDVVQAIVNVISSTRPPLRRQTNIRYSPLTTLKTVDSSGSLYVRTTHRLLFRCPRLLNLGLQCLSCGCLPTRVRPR

mouse RetSat = target: T5, mouse RetSat (Mus musculus, UniProt Q64FW2); test: RetSat saturase activity in Tet-induced HEKK-RetSat cells; type: cell-based; details: 40 μM substrate, overnight incubation
T5 construct: expressed in transfected cells
T5 sequence (Q64FW2 26-609): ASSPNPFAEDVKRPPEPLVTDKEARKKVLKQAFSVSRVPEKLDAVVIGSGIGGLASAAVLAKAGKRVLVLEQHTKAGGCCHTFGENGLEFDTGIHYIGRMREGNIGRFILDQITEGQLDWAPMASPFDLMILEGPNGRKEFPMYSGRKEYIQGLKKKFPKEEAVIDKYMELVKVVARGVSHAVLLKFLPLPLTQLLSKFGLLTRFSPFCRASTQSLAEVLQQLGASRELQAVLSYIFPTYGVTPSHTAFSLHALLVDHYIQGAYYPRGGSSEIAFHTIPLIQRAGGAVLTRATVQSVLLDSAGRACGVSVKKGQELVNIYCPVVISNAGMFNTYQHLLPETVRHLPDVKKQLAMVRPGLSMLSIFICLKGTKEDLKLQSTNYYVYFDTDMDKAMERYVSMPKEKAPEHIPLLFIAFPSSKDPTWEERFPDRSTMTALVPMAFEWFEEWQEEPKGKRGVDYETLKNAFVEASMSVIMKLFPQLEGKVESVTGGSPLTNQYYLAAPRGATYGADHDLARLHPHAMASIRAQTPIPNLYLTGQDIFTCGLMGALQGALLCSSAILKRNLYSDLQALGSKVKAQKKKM
Protocol: Enzyme assays of RetSat and CRTISO-catalyzed reactions. For enzyme assay, cells were seeded in six-well plates and expression of RetSat or CRTISO was induced with 1 μg/ml tetracycline 48 hr prior to analysis. Substrate preparation and addition were conducted under dim red light. Retinoid substrates were purified by HPLC as described above and dissolved in N,N-dimethylformamide (DMF) to a final concentration of 4 mM. Organic extract of tangerine tomatoes was dried under a stream of argon and resuspended in DMF. The substrates were diluted in 300 μl complete media (tetracycline 1 μg/ml) to a 40 μM final concentration, overlayed on cells, and incubated overnight in the dark at 37° C. in 5% CO2 and 100% humidity. Media and cells were collected by scraping, mixed with an equal volume of methanol. For retinol and dihydroretinol analysis the methanol:water mixture was extracted with two volumes of hexane, then the organic phase was dried, resuspended in hexane, and analyzed by normal-phase HPLC. […] For carotenoid analysis the organic phase was dried and resuspended in ethanol/tetrahydrofuran (9:1) and examined by reverse-phase HPLC System I. For retinoic acid analysis the 1:1 methanol:water mixture was acidified with 0.1 volumes of 12N HCl and extracted with 1 volume of chlorofom, dried and resuspended in ethanol and examined by reverse-phase HPLC System II.

SMILES: CC1=C(/C=C/C(C)=C/C=C/C(C)CC(=O)O)C(C)(C)CCC1 (stereo not drawn) [all-trans-DRA, all-trans-13,14-dihydroretinoic acid]
- Oxidation to polar metabolites by CYP26C1 (CYP26C1): efficiently carried out the oxidation
- Oxidation to polar metabolites by CYP26B1 (CYP26B1): efficiently carried out the oxidation

SMILES: CC1=C(/C=C/C(C)=C/C=C/C(C)CCO)C(C)(C)CCC1 (stereo not drawn) [all-trans-DROL, all-trans-13,14-dihydroretinol]
- Oxidation to the aldehyde by RDH12 (RDH12): much less so
- Oxidation to the aldehyde by prRDH (prRDH): much less so

SMILES: CC1=C(/C=C/C(C)=C/C=C/C(C)=C/C(=O)O)C(C)(C)CCC1 [all-trans-RA, all-trans-retinoic acid, reference compound]
- Saturation by RetSat (substrate activity) (mouse RetSat): not substrate
- Oxidation to polar metabolites by CYP26C1 (CYP26C1): efficiently carried out the oxidation
- Oxidation to polar metabolites by CYP26B1 (CYP26B1): efficiently carried out the oxidation

SMILES: CC1=C(/C=C/C(C)=C/C=C/C(C)=C/CO)C(C)(C)CCC1 [all-trans-ROL, all-trans-retinol]
- Saturation by RetSat (substrate activity) (mouse RetSat): good substrate
- Oxidation to the aldehyde by RDH12 (RDH12): active
- Oxidation to the aldehyde by prRDH (prRDH): active
